≈ marks a conversion by molar mass, not a printed value. Each block holds one compound with its values, some of them ahead of it.
What was measured:
[1] = system: Plasmodium falciparum; experiment: Antimalarial activity against Plasmodium falciparum 3D7 infected in erythrocytes assessed as parasite growth inhibition incubated for 42 hrs by [3H]-hypoxanthine incorporation assay; type: functional, organism-based; conditions: 3D7, Erythrocyte
[2] = system: Plasmodium falciparum; experiment: Antimalarial activity against Plasmodium falciparum […] incubated for 48 hrs; type: functional, organism-based
[3] = system: Plasmodium falciparum; experiment: Antiplasmodial activity against Plasmodium falciparum 3D7 at asexual erythrocytic stage infected in human erythrocytes assessed as parasite growth inhibition incubated for 42 hrs by [3H]-hypoxanthine incorporation assay; type: functional, organism-based; conditions: 3D7, Erythrocyte
[4] = system: Plasmodium falciparum; experiment: Antimalarial activity against CQ-sensitive Plasmodium falciparum 3D7 infected in human O+ erythrocytes assessed as parasite growth inhibition incubated for 48 hrs by SYBR Green I staining based analysis; type: functional, organism-based; conditions: 3D7, Erythrocyte
[5] = system: Plasmodium falciparum; experiment: Antimalarial activity against CQ-resistant Plasmodium falciparum K1 infected in human O+ erythrocytes assessed as parasite growth inhibition incubated for 48 hrs by SYBR Green I staining based analysis; type: functional, organism-based; conditions: K1, Erythrocyte
[6] = system: Plasmodium falciparum; experiment: Antiplasmodial activity against CQ-sensitive Plasmodium falciparum NF54 at asexual stage assessed as parasite growth inhibition; type: functional, organism-based
[7] = system: Plasmodium falciparum; experiment: Antiplasmodial activity against Plasmodium falciparum K1 at asexual stage assessed as parasite growth inhibition; type: functional, organism-based
[8] = system: Plasmodium falciparum; experiment: Antimalarial activity against Plasmodium falciparum 3D7 assessed as inhibition of parasitemia incubated for 72 hrs by fluorescence based assay; type: functional, organism-based; conditions: 3D7, 72 h
[9] = Inhibition of Plasmodium falciparum SR21
[10] = system: Plasmodium falciparum; experiment: Antiplasmodial activity against CQ-resistant Plasmodium falciparum W2 assessed as parasite growth inhibition incubated for 72 hrs by SYBR Green I staining based analysis; type: functional, organism-based; conditions: W2, 72 h
[11] = system: Plasmodium falciparum; experiment: Antiplasmodial activity against CQ-susceptible Plasmodium falciparum 3D7 assessed as parasite growth inhibition incubated for 72 hrs by SYBR Green I staining based analysis; type: functional, organism-based; conditions: 3D7, 72 h
[12] = system: Plasmodium falciparum; experiment: Antiplasmodial activity against CQ-sensitive Plasmodium falciparum NF54; type: functional, organism-based
[13] = Cytotoxicity against African green monkey Vero cells; type: toxicity, cell-based; conditions: chlorocebus sabaeus
[14] = system: Plasmodium falciparum; experiment: Antimalarial activity against CQ-sensitive Plasmodium falciparum D6 assessed as parasite growth inhibition by LDH assay; type: functional, organism-based
[15] = system: Plasmodium falciparum; experiment: Antimalarial activity against CQ-resistant Plasmodium falciparum W2 assessed as parasite growth inhibition by LDH assay; type: functional, organism-based
[16] = system: Plasmodium falciparum; experiment: Antimalarial activity against Plasmodium falciparum 3D7 assessed as inhibition of parasite proliferation; type: functional, organism-based
[17] = system: Plasmodium falciparum; experiment: Antiplasmodial activity against CQ-sensitive Plasmodium falciparum F32 Tanzania assessed as parasite growth inhibition incubated for 48 hrs; type: functional, organism-based
[18] = system: Plasmodium falciparum; experiment: Antimalarial activity against Plasmodium falciparum W2 assessed as parasite growth inhibition; type: functional, organism-based

SMILES: COc1ccc2cc3[n+](cc2c1OCc1cn(-c2ccc(S(=O)(=O)Nc4ccc(Cl)cc4)cc2)nn1)CCc1cc2c(cc1-3)OCO2.[Cl-]
- IC50 [1]: 0.1 µg/mL

- IC50 [2]: 1.45 µg/mL (≈ 2.91 µM)
SMILES: COc1ccc(-c2cc(-c3c(C)nn(-c4ccccc4)c3-n3cncn3)n3c(n2)nc2ccccc23)cc1

SMILES: Cc1cc(C)nc(NS(=O)(=O)c2ccc(-n3cc(COc4ccccc4)nn3)cc2)n1
- IC50 [3]: > 50 µg/mL

SMILES: NS(=O)(=O)c1ccc(-n2cc(COc3ccccc3)nn2)cc1
- IC50 [3]: 15 µg/mL (≈ 45.4 µM)

SMILES: COC(=O)c1ccccc1-c1ccc(Cn2cc(-c3cncc4ccccc34)nn2)cc1
- IC50 [4]: 35.8 µM
- IC50 [5]: 52 µM

SMILES: COC(=O)C1=C(Cn2cc(CNc3ccnc4cc(Cl)ccc34)nn2)N(C)C(=O)NC1c1ccc(F)cc1 (centres undefined)
- IC50 [6]: 0.138 µM
- IC50 [7]: 0.498 µM

SMILES: COc1ccc2cc3[n+](cc2c1OCc1cn(-c2ccc(S(=O)(=O)N4CCOCC4)cc2)nn1)CCc1cc2c(cc1-3)OCO2.[Cl-]
- IC50 [1]: 0.5 µg/mL

- IC50 [8]: 2.8 µM
- IC50 [9]: 1.55 µM
SMILES: CCCCCCCCCC(=O)OCc1cn(-c2ccc(Cl)cc2)nn1

SMILES: OB1OCc2cc(OCc3cn(-c4ccnc5ccc(Cl)cc45)nn3)ccc21
- IC50 [10]: 5.22 µM
- IC50 [11]: 4.87 µM

- IC50 [8]: 27.5 µM
SMILES: O=C(OCc1cnn(-c2ccccc2)n1)c1ccccc1

SMILES: COc1ccc2cc3[n+](cc2c1OCc1cn(-c2ccc(S(=O)(=O)N4CCCCC4)cc2)nn1)CCc1cc2c(cc1-3)OCO2.[Cl-]
- IC50 [1]: 0.8 µg/mL

- IC50 [12]: 2.71 µM
SMILES: CC1(C)[C@@H](O)CC[C@]2(C)[C@H]3C(=O)C=C4[C@@H]5C[C@@](C)(C(=O)OCc6cn(-c7ccc([N+](=O)[O-])cc7)nn6)CC[C@]5(C)CC[C@@]4(C)[C@]3(C)CC[C@@H]12
- CC50 [13]: 175 µM

- IC50 [12]: 8.82 µM
SMILES: CC1(C)[C@@H](O)CC[C@]2(C)[C@H]3C(=O)C=C4[C@@H]5C[C@@](C)(C(=O)OCc6cn(-c7ccc(F)cc7)nn6)CC[C@]5(C)CC[C@@]4(C)[C@]3(C)CC[C@@H]12
- CC50 [13]: 226 µM

SMILES: O=C1c2nnn(Cc3cccc([N+](=O)[O-])c3)c2C(=O)c2nnn(Cc3cccc([N+](=O)[O-])c3)c21
- IC50 [14]: 1.91 µM
- IC50 [15]: 2.89 µM

- IC50 [2]: 0.83 µg/mL (≈ 1.75 µM)
SMILES: Cc1nn(-c2ccccc2)c(-n2cncn2)c1-c1cc(-c2cccs2)nc2nc3ccccc3n12

- IC50 [8]: 12.8 µM
SMILES: CCOC(=O)c1cn(-c2ccccc2)nn1

- IC50 [8]: 6.67 µM
- IC50 [9]: 0.89 µM
SMILES: O/N=C/c1cn(-c2ccc(Cl)cc2)nn1

- IC50 [12]: 3.5 µM
SMILES: CC(=O)c1cccc(-n2cc(COC(=O)[C@@]3(C)CC[C@]4(C)CC[C@]5(C)C(=CC(=O)[C@@H]6[C@@]7(C)CC[C@H](O)C(C)(C)[C@@H]7CC[C@]65C)[C@@H]4C3)nn2)c1
- CC50 [13]: 213 µM

SMILES: CC(C)(C)c1ccc(Cn2cc(-c3cccc4ccccc34)nn2)cc1
- IC50 [4]: 36.9 µM
- IC50 [5]: 42.2 µM

- IC50 [2]: 0.054 µg/mL (≈ 0.111 µM)
SMILES: Cc1nn(-c2ccccc2)c(-n2cncn2)c1-c1cc(-c2ccc(O)cc2)nc2nc3ccccc3n12

SMILES: Clc1ccc(-n2cc(-c3cncc4ccccc34)nn2)cc1
- IC50 [4]: 36.9 µM
- IC50 [5]: 4.55 µM

- IC50 [8]: 9.29 µM
SMILES: Clc1ccc(N/N=C/c2cnn(-c3ccccc3)n2)cc1

SMILES: CCCCCn1nncc1CCNC(=O)[C@H](O)C(C)(C)CO
- IC50 [16]: > 100 µM

SMILES: NS(=O)(=O)c1ccc(-n2cc(COc3ccc(F)cc3)nn2)cc1
- IC50 [3]: 15.4 µg/mL (≈ 44.2 µM)

SMILES: COC(=O)C1=C(Cn2cc(CNc3ccnc4cc(Cl)ccc34)nn2)NC(=O)NC1c1ccc(OC)cc1 (centres undefined)
- IC50 [6]: 0.245 µM
- IC50 [7]: 0.567 µM

SMILES: COC(=O)C1=C(Cn2cc(CNc3ccnc4cc(Cl)ccc34)nn2)NC(=O)NC1c1ccc(F)cc1 (centres undefined)
- IC50 [6]: 0.217 µM
- IC50 [7]: 0.551 µM

- IC50 [12]: > 10 µM
SMILES: CC(=O)c1ccc(-n2cc(COC(=O)[C@@]3(C)CC[C@]4(C)CC[C@]5(C)C(=CC(=O)[C@@H]6[C@@]7(C)CC[C@H](O)C(C)(C)[C@@H]7CC[C@]65C)[C@@H]4C3)nn2)cc1
- CC50 [13]: 226 µM

SMILES: CCCCn1cc(COC2=CC(=O)c3ccccc3C2=O)nn1
- IC50 [17]: 11.2 µM

SMILES: CC(C)(CO)[C@@H](O)C(=O)NCCc1cn(CCc2ccccc2)nn1
- IC50 [16]: 5.4 µM

- IC50 [12]: 0.48 µM
SMILES: CC1(C)[C@@H](O)CC[C@]2(C)[C@H]3C(=O)C=C4[C@@H]5C[C@@](C)(C(=O)OCc6cn(-c7ccc(Cl)cc7)nn6)CC[C@]5(C)CC[C@@]4(C)[C@]3(C)CC[C@@H]12
- CC50 [13]: 391 µM

- IC50 [2]: 1.5 µg/mL (≈ 3.11 µM)
SMILES: Cc1ccc(-c2cc(-c3c(C)nn(-c4ccccc4)c3-n3cncn3)n3c(n2)nc2ccccc23)cc1

SMILES: C=C[C@H]1CN2CC[C@H]1C[C@H]2[C@H](c1ccnc2ccccc12)n1cc(-c2ccccc2)nn1
- IC50 [18]: 4.65 µM

SMILES: NC1=C(n2cc(COC3=CC(=O)c4ccccc4C3=O)nn2)C(=O)c2ccccc2C1=O
- IC50 [17]: > 20 µM

SMILES: C=C[C@H]1CN2CC[C@H]1C[C@H]2[C@H](c1ccnc2ccccc12)n1cc(CO)nn1
- IC50 [18]: 6.82 µM

— ChEMBL document CHEMBL5512597, “Triazole hybrid compounds: A new frontier in malaria treatment” (Eur J Med Chem, 2023)
